Laboratory results from patent US7314959B2, “Amino thiol compounds and compositions for use in conjunction with cancer therapy” (Wisconsin Alumni Research Foundation, priority 2003, dated 2008).
Entries after “also recorded” stand apart in the source; their conditions may differ. Read-outs that look alike come from different tables or passages of the source.

Columns and labels:
[1] = tested on: radiation-induced dermatitis on backs of rats; test: Radiation-induced dermatitis in rat skin model; format: in vivo; conditions: for protective effect against radiation-induced dermatitis (FIG. 8D): topical in carrier vehicle before 5.5 min Cs137 irradiation
Procedure: To determine efficacy of chemoprotective polyamines in preventing radiation-induced dermatitis, adult rats were topically treated with the compounds before and after radiation treatment. Rats were exposed to medically relevant levels of radiation that could induce clinical radiation dermatitis. Sprague Dawley rats (Harlan Spraque Dawley) at 4-6 weeks-old were anesthetized with sodium pentobarbital at 40 mg/kg body weight (Sigma, St. Louis, Mo.) prior to radiation exposure. A defined area (1.5×2 cm) on the backs of rats was irradiated using a Mark I, Model 30, Cs 137 irradiator (J. L. Sheppard & Associates). Before topical drug treatment or irradiation, the backs of the rats were clipped using an Oster clipper at the closest setting. The rest of the body was protected from radiation exposure using a lead shield (2.5 cm thick). A dose response study was initially performed to reproduce relevant dermatitis that matched the Grade (I-IV) scale used to score the severity of radiation-induced dermatitis in humans. The severity of the dermatitis was scored 12-13 days post-irradiation at the peak of the dermal inflammation. […] Radiation dermatitis of Grade II-III was considered most clinically relevant, so a radiation dose of 8.7 Gy was typically used in the rats. The clipped back region on the rats was treated topically with aminothiol in delivery vehicle four times in the two hours immediately preceding irradiation (at −2 hr, −1 hr, −30 min, and −10 min; irradiation was at 0 min
The polyamines or amino thiols were prepared in a delivery vehicle, consisting of ethanol:propylene glycol:water, ranging from 0:95:5 to 50:30:20 depending upon the solubility characteristics of the topical molecule, and the degree of dermal penetration desired. A vehicle composed of an emulsion formed by sonication of ‘nonionic liposomes’ and isopropyl myristate was also used (Jayaraman, S. et al., J. Pharm. Sci. 85:1082-1084, 1996). In a commonly used protocol, 220 μl of topical drug/vehicle was applied to an area ˜2 cm×3 cm on the back in the 2 hr just prior to irradiation. Rats treated with only the delivery vehicle served as controls. Twelve to thirteen days post-radiation, the rats were evaluated for dermatitis within the irradiated area. In early studies, a modified scoring scale described by Masuda K. et al., Int. J. Radiation Oncol. Biol. Phys: 12, 1645 (1986) was used, and in later studies, including those described here, a simplified scoring system was used in which the percentage of the irradiated, rectangular field covered with scrab material was estimated between 0 and 100% to provide scores on a scale between 0 and 100.
This example relates to the use of a rat skin model to evaluate the efficacy of two amino thiol compounds in preventing radiation-induced dermatitis. To test whether topically-applied aminothiols could prevent the radiodermatitis caused by external beam radiotherapy, the rodent model described in Example 3 was slightly modified. Briefly, the radiodermatitis model involved: • i) shaving the backs of 6-7 week old rats or mice; • ii) applying four topical doses of aminothiol in a delivery vehicle composed of ethanol:propylene glycol (PG):water in the 2 hr prior to irradiation; • iii) irradiating a small, 3 cm^2 (1.5×2 cm) area on the animal's back (through a window in a lead plate) with 8.7 Gy of γ radiation from a Cs^137 source; and • iv) scoring the severity of the dermatitis 12-13 days later, at the peak of the inflammatory skin reaction. Radiodermatitis severity was scored by estimating the percentage of the irradiated field that was covered by scrab material.
Methods: Treatments were applied as described in Example 6.

[2] = tested on: cell cycle; conditions: Jeitner and Renton 1996; Snyder and Grdina 2000; Kramer et al. 1997; cited from earlier work
[3] = tested on: primary, human skin fibroblasts; test: Cell cycle block in human skin fibroblasts (flow cytometry); format: cell-based; conditions: for cell cycle block (phase): log-phase human fibroblast cultures; for reversibility of cell cycle block: upon washout or removal of the drug
Procedure: (§1) Methods (Cell cycle and p21 western): The cell culture experiments were done using primary, human skin fibroblasts, one strain of which (BJ cells) was obtained from ATCC (American Type Culture Collection). […] For flow cytometry and p21 experiments, cells were plated at 0.5×10^6 cells/150 mm plate, and 24 hr later, drug molecules (4100 μM PrC-210, 600 μM cysteamine, 205 μM cysteamine analog, 0.4 μg/ml colcemid) were added to medium. […] (Cancer Research. 61(21):7754-62, 2001). As per the cited reference, cells were fixed, treated with RNAse, and stained with propidium iodide for flow cytometry, or cells were extracted, proteins electrophoresed, and probed with anti-p21 antibody (#SXM-30) for western blot analysis.

[4] = tested on: cells in tissue culture; conditions: Purdie 1979; cited from earlier work
[5] = tested on: 23SK human skin cells; test: Protection of human skin cells against phosphoramide mustard; format: cell-based; conditions: 4 mM preload 30 min, phosphoramide mustard 40 min
Procedure: An in vitro cell culture assay was developed to determine the ability of chemoprotective polyamines, chemoprotective amino thiols and other molecules to confer radioprotection or chemoprotection to human skin cells. Diploid, human foreskin fibroblasts (23SK cells) were maintained in DMEM supplemented with 20% fetal bovine serum and gentamycin. For toxicity experiments, cells were seeded at a density of 750 cells/100 μl of DMEM+20% FBS+gentamycin into each well of 96 well plates (Corning, Corning, N.Y.). The next day, solutions of protective drug molecules, typically at 4 mM concentration, were prepared in Dulbecco's phosphate-buffered saline (D-PBS); each stock was titrated back to pH 7.0-7.5, if necessary, using sterile HCl or NaOH. Media was aspirated from cell wells, wells were rinsed with D-PBS, and loading solutions were then added to wells. Cells were typically exposed to loading solutions for 30 min. Following this drug loading period, plates were either placed directly into a Shepherd Mark II Cs^137 irradiator for irradiation (38 min), or wells were aspirated and the solution immediately replaced with a solution of D-PBS containing 350 μM phosphoramide mustard (obtained from NCI Chemical Repository) for a 40 min incubation at room temperature. After either treatment, wells were aspirated, rinsed and then given 100 μl of DMEM+20% FBS+gentamycin. Plates were maintained in 5% CO2 within a humidified chamber within a humidified incubator for 4-5 days at 37° C. […] of MTT solution (Promega Corp., Madison, Wis.) was then added to each well, and color development occurred over the next 3 hr at 37° C. Absorbance at 490 nm was then determined using a plate reader, and cell growth in treated wells compared to cell growth in wells loaded with vehicle and not irradiated or exposed to phosphoramide mustard was plotted using GraphPad software.

[6] = tested on: mouse skin; conditions: cited from earlier work
[7] = tested on: p21 in human fibroblasts; test: p21 western blot in human skin fibroblasts; format: cell-based; conditions: IC70 concentration of PrC-210 (4100 μM); cysteamine 600 μM; 30 hour exposure
Procedure: as §1

[8] = tested on: radiation-induced alopecia in 11 day old rat pups; conditions: vehicle 50:25:25
Procedure: In some cases, topical vasoconstrictors may be used to reduce the severity of cancer therapy side-effects. […] Because cysteamine might have been toxic if distributed systemically at high concentrations in animals, a vasoconstrictor, in this case epinephrine (epinephrine-HCl, Sigma Chemical, 20 mM in topical 0:95:5 vehicle; ethanol:PG:water) was topically co-applied with cysteamine in an effort to prevent any potential uptake of the small aminothiol by skin vasculature. […] These initial experiments were done using a rat model where whole-body radiation is used to induce alopecia. This protocol is a variation of the Cytoxan-induced alopecia protocol described in Example 2. Here, 11 day old rat pups receive four topical treatments to their backs in the two hour period (at −2 hr, −1 hr, −30 min, −10 min) just prior to receiving whole-body irradiation (3.65 min) in a Cs137 irradiator. […] The topical vehicle varies from 0:95:5 (ethanol:PG:water) to 50:30:20, depending upon the solubility and concentration of the particular aminothiol. […] Following irradiation, the animals are housed with lactating mothers for 9 days and protection from radiation-induced alopecia within the topically-treated area is scored on day 20 of life. Protection is scored as the percentage of coat density seen in unirradiated rats.
Here, epinephrine-HCl (FW:220) was dissolved in an ethanol:propylene glycol:water delivery vehicle and was applied four times in the two hours just prior to irradiating the 11 day old rat pups. The animals were then housed with lactating mothers until day 20 of life when the degree of protection conferred by the topical epinephrine was scored.

[9] = tested on: Phase I/Phase II/Phase III drug metabolizing/exporting gene products in neonate rat skin; test: Nucleic acid arrays of topically treated neonate rat skin; format: in vivo; conditions: topical treatment of neonate rat skin for 3-6 days
Excerpt: Two examples of genes whose expression was induced following topical β-naphthaflavone treatment included, glutathione S-transferase (several separate isoforms that conjugate/detoxify drug electrophiles), and MRP (mdr-related protein, drug exporting membrane pump).

## NCCCNCCS [WR-1065]
[1]
  protective effect against radiation-induced dermatitis (FIG. 8D): lack of a protective effect
[2]
  cell cycle arrest reported in literature: arresting cells in the G2 phase
[3]
  cell cycle block (phase): cell cycle block in G2; also recorded: G2 cell cycle block that could not be reversed
  reversibility of cell cycle block: not reversible
[4]
  radioprotector activity when added to cells in tissue culture: active as a radioprotector
[5]
  protective effect on cell growth against phosphoramide mustard (FIG. 8B): not significantly different than that seen in the vehicle control

## NCCCNCCSP(=O)(O)O [amifostine]
[1]
  protective effect against radiation-induced dermatitis (FIG. 8D): lack of a protective effect
[2]
  cell cycle arrest reported in literature: arresting cells in the G2 phase
[3]
  cell cycle block (phase): G2 cell cycle block that could not be reversed
[6]; systemic, mice, Lowy et al. 1972
  effect of systemic drug on radiation-induced skin damage: effective in reducing radiation-induced skin damage
[6]; topical, Verhey et al. 1983
  protective effect when applied topically to mouse skin: no protective effect
[6]; topical, mice, Lowy et al. 1972
  effect of topical application on radiation-induced skin damage: showed no protective effect
[5]
  protective effect on cell growth against phosphoramide mustard (FIG. 8B): not significantly different than that seen in the vehicle control

## NCCS [cysteamine]
[1]; 600-1200 mM applied to backs of rats two hours prior to radiation
  effect on radiation dermatitis: eliminate radiation dermatitis
[2]
  cell cycle arrest reported in literature: arrest in G2/M
[3]
  cell cycle block (phase): cell cycle block in G2; also recorded: G2 cell cycle block that could not be reversed
  reversibility of cell cycle block: not reversible
[4]
  radioprotector activity when added to cells in tissue culture: active as a radioprotector
[7]
  p21 expression: does not induce such expression
[5]
  protective effect on cell growth against phosphoramide mustard (FIG. 8B): conferred a protective effect

## CNC[C@H](O)c1ccc(O)c(O)c1 [epinephrine]
[1]; 20 mM epinephrine, vehicle 0:95:5, cage 480, 8.7 Gy
  Dermatitis Score (% of irradiated field free of scab material): 20 ± 8%
[8]; 20 mM epinephrine, 3.65 min γ irradiation (Cs137), Experiment 647-650
  Alopecia Score (% Normal Coat Density in Topical Treatment Area): 10%
[8]; 100 mM epinephrine, 3.65 min γ irradiation
  Alopecia Score (% Normal Coat Density in Topical Treatment Area): 35 ± 19%
[8]; 500 mM epinephrine, 3.65 min γ irradiation
  Alopecia Score (% Normal Coat Density in Topical Treatment Area): 43 ± 17%
[8]; 1000 mM epinephrine, 3.65 min γ irradiation
  Alopecia Score (% Normal Coat Density in Topical Treatment Area): 94 ± 6%

## O=c1cc(-c2ccccc2)oc2ccc3ccccc3c12 [β-naphthaflavone]
[9]
  number of Phase I/Phase II/Phase III drug metabolizing/exporting gene products activated: at least 40
